Results published in PMC12689952 (Frontiers in Pharmacology, 2025).
pIC50: −log10 of the molar value. Read-outs that look alike come from different tables or passages of the source.

Key:
[1] = tested on: Sprague Dawley rats; assay: Forced swimming test (FST) after intranasal administration; assay type: in vivo, rat; details: for Climbing / Immobility / Swimming: mean ± SEM
Procedure: (§1) Male Sprague Dawley rats (body weight 200–225 g) were obtained from Charles River (Barcelona, Spain) and maintained in a humidity-controlled and temperature-controlled (20 °C–22 °C) room. Rats were maintained during the alcohol protocol on a 12-h reversed light/dark cycle (lights off at 9 a.m.). All animal experimentation was conducted in accordance with the University of Málaga Guidelines for the Care and Use of Laboratory Animals (Ethic Code: 22/05/2017/066).
(§2) Animals were preacclimated to the procedure and handled daily for 3 days to reduce stress. Rats were administered under light anaesthesia with isoflurane (3%–4% for induction and 1.5%–2% for maintenance) for approximately 2–3 min, sufficient to prevent movement during intranasal administration. A single intranasal infusion of GAL (1–15) (TOCRIS, Bristol, United Kingdom, molecular weight = 1557 g/mol) was administered at doses of 37.5 μg, 75 μg, 150 μg, or 300 μg, equivalent to those used with other peptides ([Serova et al., 2013]; [Serova et al., 2019]). Doses were dissolved in 20 μL of distilled water, with 10 μL administered into each nostril using a disposable plastic-tipped pipette, without inserting deeply, 30 min or 1 h before behavioral testing, as described previously ([Serova et al., 2013]; [Serova et al., 2019]). Care was taken to avoid contact with the intranasal mucosa. After intranasal administration, the animal’s head was held back for approximately 15 s to prevent loss of solution from the nostrils. Animals returned to normal behavior within 1–2 min, and no subjects needed to be withdrawn due to intolerance.
Depressive behavior was assessed using the FST, as described previously ([Millón et al., 2014]; [Cantero-García et al., 2022b]). Briefly, two swimming sessions were conducted: a 15-min pretest followed 24 h later by a 5-min test. Animals were individually placed in a vertical glass cylinder of 20 cm diameter containing water (25 °C) to a height of 30 cm. Immobility, swimming and climbing behaviors were evaluated and recorded during the second 5-min test. Behavioral scoring was conducted by a blinded experimenter using coded videos to ensure objectivity.
Two experiments were conducted in the FST (Figure 1A). A dose-response curve of GAL (1–15) was performed in the first set of experiments. For this, groups of rats received GAL (1–15) intranasally 37.5 μg (n = 6), 75 μg (n = 6), 150 μg (n = 6) or 300 μg (n = 6) or distilled water (n = 12) 30 min before the test. The effects in the FST of GAL (1–15) intranasally at 1 h were studied in the second set of experiments. For this, groups of rats received GAL (1–15) intranasal 37.5 μg (n = 8), 75 μg (n = 8) or distilled water (n = 4–5) 1 h before the test. Animals were randomly assigned to treatment groups.

[2] = target: T1, CYP3A4 (Homo sapiens, UniProt P08684); assay: Cytochrome P450 inhibition assay in human liver microsomes (testosterone substrate); assay type: in vitro ADME
T1 construct: Following the addition of human liver microsomes (HLM) and specific substrates; from tissue; host or cells: human liver microsomes
Procedure: (§3) The Cytochrome P450 (CYP450) inhibition assay was performed to assess GAL (1–15) using substrates specific for the CYP3A4, CYP2D6, and CYP2C9 isoforms. […] Following the addition of human liver microsomes (HLM) and specific substrates (testosterone for CYP3A4, dextromethorphan for CYP2D6, diclofenac for CYP2C9), reactions were incubated with shaking at 180 Hz (CYP3A4: 15 min; CYP2D6: 30 min; CYP2C9: 45 min). […] Reactions were quenched with acetonitrile, centrifuged, and analyzed using LC-MS/MS with a triple quadrupole mass spectrometer (AB SCIEX API4000) coupled to an Agilent 1290 HPLC system ([Fowler et al., 2022]). Data were processed using Genedata Screener software to calculate IC50 values.

[3] = tested on: Sprague Dawley rats; assay: Operant alcohol self-administration test after intranasal administration; assay type: in vivo, rat; details: 75 μg intranasal, 1 h before test
Procedure: as §1, §2
Training and testing were conducted in standard operant chambers (Panlab, Barcelona, Spain). Each chamber (250 mm W × 250 mm D × 250 mm H) was equipped with a drinking reservoir positioned 4 cm above the grid floor in the center of the front panel of the chamber, and two retractable levers were located 3 cm to right an left of the dinking receptacle. Each reservoir was calibrated to dispense 0.1 mL when the fixed ratio of lever presses was obtained. Chambers were connected to a computer running Packwin Sofware (2.0, Panlab, Barcelona, Spain).
Alcohol consumption was assessed using the previous self-administration test ([Cantero-García et al., 2022a]; [Cantero-García et al., 2022b]; [Lebourgeois et al., 2018]) (Figure 1B). Briefly, rats were exposed to intermittent consumption of 0.2% saccharin and 10% alcohol for 3 weeks. After that, rats were placed on a water restriction schedule for 2–4 days to facilitate training in lever pressing. […]

[4] = tested on: rats; set-up: method as in Cantero-García et al., 2022a; details: 3 nmol intracerebroventricular; ref Cantero-García et al., 2022a; cited from earlier work
[5] = tested on: rats; set-up: method as in Millón et al., 2019b; details: voluntary intake model; ref Millón et al., 2019b; cited from earlier work
[6] = target: CYP2D6 (Homo sapiens, UniProt P10635); assay: Cytochrome P450 inhibition assay in human liver microsomes (dextromethorphan substrate)
Procedure: as §3

[7] = tested on: rats; set-up: method as in Millón, 2014; details: 3 nmol intracerebroventricular; ref Millón, 2014; cited from earlier work
[8] = target: CYP2C9 (Homo sapiens, UniProt P11712); assay: Cytochrome P450 inhibition assay in human liver microsomes (diclofenac substrate)
Procedure: as §3

[9] = target: hERG potassium channel (Homo sapiens, UniProt Q12809); assay: hERG inhibition, FluxOR potassium assay in hERG-expressing HEK293 cells
Procedure: Cardiotoxicity of GAL (1–15) was assessed in hERG-expressing HEK cells using the FluxOR™ potassium assay (Invitrogen) on a FLIPR TETRA system. Cells were preloaded with FluxOR™ dye, followed by incubation with GAL (1–15) in a 10-point half-log dose-response curve (max concentration: 50 µM). After a 30-min equilibration, the thallium stimulation buffer was injected to measure potassium flux kinetics. […] Data were analyzed using Genedata Screener software, with IC50 values determined via the Hill model ([Annang et al., 2021]; [Lee et al., 2019]).

[10] = tested on: CHO cells; details: 24 h
Procedure: The study followed OECD Test Guideline 487 for micronucleus assessment in rodent CHO cells (ECACC ref: 85050302). Cells were seeded at 2,000/well in 96-well plates and incubated at 37 °C with 5% CO2. GAL (1–15) (2.52 mM stock) was tested at concentrations ranging from 3.12 to 50 μM for 24 h in six replicates. […] After treatment, cytochalasin B was added for 28 h to block cytokinesis, followed by fixation and Hoechst staining. Imaging was performed using the Operetta CLS High-Content Analysis System, and analysis was conducted with Harmony software and the in-house NucleusFinder App (ImageJ-based). NucleusFinder identified valid micronuclei under stringent criteria, excluding irregular structures ([Durcik et al., 2023]). The cytokinesis-block proliferation index (CBPI) was calculated to assess cytostatic effects, ensuring cytostasis remained below 60% to avoid secondary micronuclei induction due to cytotoxicity. Cytostasis was calculated as follows: %cytostasis = 100–100 [(CBPIT-1)/(CBPIC-1)] where T is the test compound treatment culture, C is the vehicle control culture, and CBPI = {(No. mononucleate cells) + (2 × No. binucleate cells) + (3 × No. multinucleate cells)}/(total number of cells).

[11] = 37.5 μg intranasal, 1 h before test
[12] = 75 μg intranasal, 1 h before test, p < 0.05 vs control
[13] = 150 μg intranasal, 30 min before test, p < 0.05
[14] = 300 μg intranasal, 30 min before test, p < 0.05

CYP2D6, sequence (P10635 whole entry): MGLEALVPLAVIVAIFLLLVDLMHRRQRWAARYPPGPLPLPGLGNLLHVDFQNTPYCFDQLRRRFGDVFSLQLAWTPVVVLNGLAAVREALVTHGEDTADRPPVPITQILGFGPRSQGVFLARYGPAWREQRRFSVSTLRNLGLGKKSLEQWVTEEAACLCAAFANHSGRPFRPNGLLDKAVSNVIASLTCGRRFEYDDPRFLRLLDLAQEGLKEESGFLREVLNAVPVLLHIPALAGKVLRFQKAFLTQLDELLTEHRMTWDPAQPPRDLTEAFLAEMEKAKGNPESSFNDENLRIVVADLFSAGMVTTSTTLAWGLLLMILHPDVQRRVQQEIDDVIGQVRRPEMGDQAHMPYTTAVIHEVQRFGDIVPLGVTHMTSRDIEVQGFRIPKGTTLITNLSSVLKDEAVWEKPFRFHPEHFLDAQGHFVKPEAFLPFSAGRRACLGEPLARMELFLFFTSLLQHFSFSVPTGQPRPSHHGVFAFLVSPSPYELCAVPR
T1 sequence (P08684 whole entry): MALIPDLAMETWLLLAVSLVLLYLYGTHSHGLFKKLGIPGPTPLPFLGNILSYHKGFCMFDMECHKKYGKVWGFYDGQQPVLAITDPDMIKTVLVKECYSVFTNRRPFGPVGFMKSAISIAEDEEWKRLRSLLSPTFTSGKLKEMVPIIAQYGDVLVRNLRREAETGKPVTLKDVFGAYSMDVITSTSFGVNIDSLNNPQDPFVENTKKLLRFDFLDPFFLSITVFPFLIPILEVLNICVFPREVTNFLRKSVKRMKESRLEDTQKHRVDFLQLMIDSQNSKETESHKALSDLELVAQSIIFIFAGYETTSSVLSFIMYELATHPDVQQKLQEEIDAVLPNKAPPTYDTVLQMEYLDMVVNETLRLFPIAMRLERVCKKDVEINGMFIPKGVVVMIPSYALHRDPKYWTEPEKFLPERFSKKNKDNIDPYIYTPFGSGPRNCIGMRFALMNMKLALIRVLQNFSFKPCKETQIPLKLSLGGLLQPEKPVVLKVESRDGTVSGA
CYP2C9, sequence (P11712 whole entry): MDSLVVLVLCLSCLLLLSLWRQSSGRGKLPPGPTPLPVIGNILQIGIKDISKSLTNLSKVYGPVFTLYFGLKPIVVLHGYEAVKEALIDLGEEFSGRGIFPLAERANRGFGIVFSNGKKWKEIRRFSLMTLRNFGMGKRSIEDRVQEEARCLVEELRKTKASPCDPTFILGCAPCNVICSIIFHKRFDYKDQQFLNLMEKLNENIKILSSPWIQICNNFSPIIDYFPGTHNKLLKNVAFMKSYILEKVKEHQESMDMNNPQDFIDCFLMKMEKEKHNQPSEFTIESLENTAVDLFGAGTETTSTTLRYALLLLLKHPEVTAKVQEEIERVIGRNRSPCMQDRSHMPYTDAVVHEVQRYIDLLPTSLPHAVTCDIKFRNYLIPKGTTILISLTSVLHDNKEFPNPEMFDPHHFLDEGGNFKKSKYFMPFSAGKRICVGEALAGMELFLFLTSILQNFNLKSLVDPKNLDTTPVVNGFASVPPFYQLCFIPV
hERG potassium channel, sequence (Q12809 whole entry): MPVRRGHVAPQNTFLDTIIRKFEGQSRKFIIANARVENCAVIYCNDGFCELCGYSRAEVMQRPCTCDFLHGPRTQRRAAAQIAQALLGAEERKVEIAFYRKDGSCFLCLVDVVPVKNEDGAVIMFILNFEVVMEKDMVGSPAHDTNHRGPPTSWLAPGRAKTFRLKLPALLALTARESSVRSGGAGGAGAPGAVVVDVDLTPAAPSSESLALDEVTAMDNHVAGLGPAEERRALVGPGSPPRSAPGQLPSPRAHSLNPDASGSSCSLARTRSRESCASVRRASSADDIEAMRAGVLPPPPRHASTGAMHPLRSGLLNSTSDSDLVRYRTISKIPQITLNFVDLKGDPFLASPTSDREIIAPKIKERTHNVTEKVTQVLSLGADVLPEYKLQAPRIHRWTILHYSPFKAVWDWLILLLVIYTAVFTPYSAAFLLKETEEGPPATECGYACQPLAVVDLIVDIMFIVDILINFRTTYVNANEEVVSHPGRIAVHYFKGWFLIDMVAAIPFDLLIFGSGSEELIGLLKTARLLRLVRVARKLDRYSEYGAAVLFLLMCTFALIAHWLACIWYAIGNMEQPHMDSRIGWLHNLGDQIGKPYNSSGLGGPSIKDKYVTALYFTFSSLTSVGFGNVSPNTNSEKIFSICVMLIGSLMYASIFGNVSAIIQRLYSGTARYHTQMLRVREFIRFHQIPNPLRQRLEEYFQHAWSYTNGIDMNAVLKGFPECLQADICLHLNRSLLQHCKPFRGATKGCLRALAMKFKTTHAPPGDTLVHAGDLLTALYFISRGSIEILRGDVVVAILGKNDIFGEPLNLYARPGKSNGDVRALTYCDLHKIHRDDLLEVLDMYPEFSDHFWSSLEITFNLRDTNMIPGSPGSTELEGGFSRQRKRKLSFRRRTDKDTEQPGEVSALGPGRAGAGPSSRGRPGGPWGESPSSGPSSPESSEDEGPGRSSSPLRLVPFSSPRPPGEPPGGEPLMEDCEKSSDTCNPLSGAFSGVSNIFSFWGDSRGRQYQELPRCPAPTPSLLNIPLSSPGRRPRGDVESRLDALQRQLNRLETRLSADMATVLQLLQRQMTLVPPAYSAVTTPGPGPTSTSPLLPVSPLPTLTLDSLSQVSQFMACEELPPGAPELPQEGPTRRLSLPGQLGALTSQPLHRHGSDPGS

SMILES: CC(C)C[C@H](NC(=O)[C@H](CC(C)C)NC(=O)[C@H](Cc1ccc(O)cc1)NC(=O)CNC(=O)[C@H](C)NC(=O)[C@H](CO)NC(=O)[C@H](CC(N)=O)NC(=O)[C@H](CC(C)C)NC(=O)[C@@H](NC(=O)[C@H](Cc1c[nH]c2ccccc12)NC(=O)CN)[C@@H](C)O)C(=O)NCC(=O)N1CCC[C@H]1C(=O)N[C@@H](Cc1cnc[nH]1)C(=O)N[C@@H](C)C(=O)O [GAL (1–15), Galanin (1–15)]
- Behavioral effects in the FST ([1]; 37.5 μg intranasal, 30 min before test): did not produce significant behavioral effects
- Immobility, swimming, or climbing behaviors in FST vs control [1, 11]: no significant alterations
- Climbing [1, 11]: 109.6 ± 16.26 s
- Immobility [1, 11]: 59.10 ± 23.04 s
- Swimming [1, 11]: 97.75 ± 16.01 s
- Immobility time in FST vs control ([1]; 75 μg intranasal, 30 min before test, p < 0.001): significant increase in immobility time
- Swimming time in FST vs control ([1]; 75 μg intranasal, 30 min before test, p < 0.01): significantly decreased swimming time
- Swimming ([1]; 75 μg intranasal, 1 h before test): 104.9 ± 15.86 s
- Climbing [1, 12]: 62.96 ± 6.47 s
- Immobility [1, 12]: 98.57 ± 18.74 s
- Immobility time in FST vs control ([1]; 75 μg intranasal, 1 h before test, p < 0.05): increasing immobility time
- Climbing time in FST vs control ([1]; 75 μg intranasal, 1 h before test, p ≤ 0.05): reducing climbing time
- Immobility in FST vs control [1, 13]: significant increase in immobility
- Swimming time in FST vs control [1, 13]: reduction in swimming time
- Immobility in FST vs control [1, 14]: significant increase in immobility
- Swimming time in FST vs control [1, 14]: reduction in swimming time
- Climbing time in FST ([1]; any of the tested doses (37.5-300 μg) intranasal, 30 min before test): No effects were observed
- CYP3A4 inhibitory potency class [2]: weak (weak inhibitors (IC50 > 10 μM))
- IC50 at 15 min ([2]; pH 7.4, testosterone substrate, N = 3, read-out: CYP3A4 IC50 [lower and upper 95%]): > 23 µM
- pIC50 ([2]; testosterone substrate, N = 3, read-out: CYP3A4 IC50 [lower and upper 95%]): < 4.59
- Total number of inactive lever presses vs control [3]: did not significantly differ
- Active lever presses vs control ([3]; 30-min session, p < 0.01): significantly reduced
- Number of alcohol reinforcements vs control ([3]; 30-min session, p < 0.01): marked decrease
- Inactive lever presses ([3]; mean ± SEM): 0.2 ± 0.1
- Number of alcohol reinforcements [4]: significantly reduced
- Decrease in alcohol preference and consumption [5]: 90%
- pIC50 [6]: < 4.59
- CYP2D6 inhibitory potency class ([6]; human liver microsomes): weak (weak inhibitors (IC50 > 10 μM))
- IC50 at 30 min ([6]; human, microsomes, pH 7.4): > 23 µM
- Decrease in climbing behavior in FST [7]: 46%
- Increase in immobility in FST [7]: 44%
- pIC50 [8]: < 4.59
- CYP2C9 inhibitory potency class ([8]; human liver microsomes): weak (weak inhibitors (IC50 > 10 μM))
- IC50 at 45 min ([8]; human, microsomes, pH 7.4): > 23 µM
- pIC50 ([9]; Cardiotoxicity classification from hERG IC50, FluxOR potassium assay, HEK293-hERG): < 5.00
- pIC50 ([9]; hERG IC50, HEK293 cells stably expressing hERG, FluxOR potassium assay, n = 3): 4.68
- % Cytostasis ([10]; 3.125 µM): 0%
- % MN ([10]; 3.125 µM): 8.39%
- No. binucleate cells ([10]; 3.125 µM): 3,324
- No. of binucleated cells with MN ([10]; 3.125 µM): 278
- % Cytostasis ([10]; 6.25 µM): 0%
- % MN ([10]; 6.25 µM): 8.28%
- No. binucleate cells ([10]; 6.25 µM): 3,210
- No. of binucleated cells with MN ([10]; 6.25 µM): 265
- % Cytostasis ([10]; 12.5 µM): 0%
- % MN ([10]; 12.5 µM): 8.53%
- No. binucleate cells ([10]; 12.5 µM): 3,209
- No. of binucleated cells with MN ([10]; 12.5 µM): 273
- % Cytostasis ([10]; 25 µM): 0%
- % MN ([10]; 25 µM): 8.70%
- No. binucleate cells ([10]; 25 µM): 3,135
- No. of binucleated cells with MN ([10]; 25 µM): 272
- % Cytostasis ([10]; 50 µM): 0.1%
- % MN ([10]; 50 µM): 7.94%
- No. binucleate cells ([10]; 50 µM): 3,108
- No. of binucleated cells with MN ([10]; 50 µM): 246
- Micronucleus formation ([10]; any tested concentration, highest 50 μM): did not induce micronucleus formation
